Data as given in patent US20260098026A1, “M4 ACTIVATORS/MODULATORS AND USES THEREOF” (Cerevel Therapeutics, LLC, priority 2022, published 2026).

What was measured:
[1] = biological target: T1, M3 muscarinic acetylcholine receptor (mAChR) (Homo sapiens, UniProt P20309); test: FLIPR calcium assay (Fluo 8), M3-overexpressing CHO-K1 cells; assay type: cell-based; details: FLIPR calcium
T1 construct: expressed in transfected cells; host or cells: CHO-K1
Experimental: Stimulation of a Gq-coupled G-protein coupled receptors (GPCRs), result in an efflux of calcium from the endoplasmic reticulum to the cytoplasm (Berridge, 1993), thus rendering this assay appropriate for the assessment of M1, M3 and M5 receptors. CHO-K1 cells overexpressing the M1, M3, or M5 muscarinic acetylcholine receptor (mAChR) were dispensed at 15,000 cells per well in 30 μl volume to 384-well plates and grown overnight at 37° C. in a 5% CO2 atmosphere. Fluo-8 Solution, 10 μl per well, was added to each well and incubated for 30 minutes at 37° C. in a 5% CO2 atmosphere. Compounds diluted in Hanks' balanced salt solution (HBSS) were transferred to the cell assay plate at 10 μl per well, and then read on a FLIPR instrument. EC50 and Emax figures were calculated from the resulting data for each receptor subtype.

M4 mAChR = biological target: T2, M4 mAChR (Homo sapiens, UniProt P08173); test: cAMP TR-FRET assay with forskolin, M4-overexpressing CHO-K1 cells; assay type: cell-based; details: cAMP TR-FRET with forskolin
T2 construct: expressed in transfected cells; host or cells: CHO-K1
T2 sequence (P08173 1-479): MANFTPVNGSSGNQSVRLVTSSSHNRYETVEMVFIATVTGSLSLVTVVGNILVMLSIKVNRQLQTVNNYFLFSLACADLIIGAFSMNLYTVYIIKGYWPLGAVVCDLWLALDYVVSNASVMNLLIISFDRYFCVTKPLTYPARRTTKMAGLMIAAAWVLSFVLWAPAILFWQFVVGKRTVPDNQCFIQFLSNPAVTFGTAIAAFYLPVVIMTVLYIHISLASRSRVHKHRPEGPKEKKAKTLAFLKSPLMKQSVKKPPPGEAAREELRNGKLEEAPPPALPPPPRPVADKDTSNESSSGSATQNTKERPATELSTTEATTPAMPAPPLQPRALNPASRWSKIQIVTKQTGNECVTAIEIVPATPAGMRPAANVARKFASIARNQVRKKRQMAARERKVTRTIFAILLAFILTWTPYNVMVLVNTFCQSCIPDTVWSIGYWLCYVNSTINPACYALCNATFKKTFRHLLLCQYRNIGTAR
Source text: The M2 and M4 mACh receptors are Gi-coupled receptors which, upon activation, produce a decrease in cAMP. Assays were developed that measured the potency and efficacy of compounds at the M2 or M4 mAChR using M2- or M4-overexpressing CHO-K1 cell lines. Time-resolved fluorescence resonance energy transfer (TR-FRET) technology was used, where signal occurs as a result of transfer of energy if the donor molecule is in close proximity to an acceptor molecule when the molecules have bound to the molecule of interest. The cAMP detection is a competition binding assay, where cAMP produced by cells competes for binding with the labeled donor molecule to the anti-cAMP acceptor antibody. Due to the low basal levels of cAMP in the CHO-K1 cell line, forskolin was used to increase cAMP levels to enable assessment of agonist activity at the mAChR of interest.

T1 sequence (P20309 whole entry): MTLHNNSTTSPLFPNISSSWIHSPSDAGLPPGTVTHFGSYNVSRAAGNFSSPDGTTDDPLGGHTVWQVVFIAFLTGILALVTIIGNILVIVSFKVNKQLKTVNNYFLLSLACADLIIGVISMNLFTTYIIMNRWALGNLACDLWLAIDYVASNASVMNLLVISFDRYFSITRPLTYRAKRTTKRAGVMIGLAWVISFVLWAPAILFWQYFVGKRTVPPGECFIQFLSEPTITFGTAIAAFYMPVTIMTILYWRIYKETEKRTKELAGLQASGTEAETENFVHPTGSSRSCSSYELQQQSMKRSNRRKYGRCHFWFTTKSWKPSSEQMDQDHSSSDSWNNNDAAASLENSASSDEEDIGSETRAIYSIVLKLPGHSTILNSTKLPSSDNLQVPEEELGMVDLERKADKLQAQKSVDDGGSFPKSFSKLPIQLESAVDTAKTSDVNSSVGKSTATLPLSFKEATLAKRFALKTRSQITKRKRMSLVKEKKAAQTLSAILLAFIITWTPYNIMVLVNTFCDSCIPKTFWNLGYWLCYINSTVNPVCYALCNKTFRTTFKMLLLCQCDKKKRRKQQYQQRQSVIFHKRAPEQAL

EC50 [1] [µM]	Emax (M4 mAChR) [%]	SMILES
> 10	80 to 100	CCOC(=O)N1CC2(CC[C@@H](N3CCN(c4cc(F)cnc4-c4cnc5c(ccn5C)c4)CC3)C2)C1 [Compound A99]
> 10	80 to 100	CCOC(=O)N1CC2(CC[C@@H](N3CCN(c4cc(F)cnc4-c4cc(C)[nH]n4)CC3)C2)C1 [Compound A101]
> 10	80 to 100	CCOC(=O)N1CC2(CC[C@@H](N3CCN(c4cc(F)cnc4-c4ccn(C)c(=O)c4)CC3)C2)C1 [Compound A102]
> 10	80 to 100	CCOC(=O)N1CC2(CC[C@@H](N3CCN(c4cc(F)cnc4-c4ccc(F)c(CO)c4)CC3)C2)C1 [Compound A105]
> 10	80 to 100	CCOC(=O)N1CC2(CC[C@@H](N3CCN(c4cc(F)cnc4-c4ccnc(OC)c4F)CC3)C2)C1 [Compound A106]
> 10	80 to 100	CCOC(=O)N1CC2(CC[C@@H](N3CCN(c4cc(F)cnc4-c4ccc(OCC)nc4)CC3)C2)C1 [Compound A107]
> 10	80 to 100	CCOC(=O)N1CC2(CC[C@@H](N3CCN(c4cc(F)cnc4-c4cc(C)cnc4F)CC3)C2)C1 [Compound A108]
> 10	80 to 100	CCOC(=O)N1CC2(CC[C@@H](N3CCN(c4cc(F)cnc4-c4cccnc4C)CC3)C2)C1 [Compound A109]
> 10	80 to 100	CCOC(=O)N1CC2(CC[C@@H](N3CCN(c4cc(F)cnc4-c4ccnc(OC)c4)CC3)C2)C1 [Compound A110]
> 10	80 to 100	CCOC(=O)N1CC2(CC[C@@H](N3CCN(c4cc(F)cnc4-c4cnc(OC)c(C)c4)CC3)C2)C1 [Compound A111]
> 10	80 to 100	CCOC(=O)N1CC2(CC[C@@H](N3CCN(c4cc(F)cnc4-c4ccc(OC)c(F)c4)CC3)C2)C1 [Compound A112]
> 10	80 to 100	CCOC(=O)N1CC2(CC[C@@H](N3CCN(c4cc(F)cnc4-c4ccnc(F)c4C)CC3)C2)C1 [Compound A114]
> 10	80 to 100	CCOC(=O)N1CC2(CC[C@@H](N3CCN(c4cc(F)cnc4-c4ccc(F)cc4O)CC3)C2)C1 [Compound A115]
> 10	80 to 100	CCOC(=O)N1CC2(CC[C@@H](N3CCN(c4cc(F)cnc4-c4ccc(C)nc4OC)CC3)C2)C1 [Compound A116]
> 10	80 to 100	CCOC(=O)N1CC2(CC[C@@H](N3CCN(c4cc(F)cnc4-c4cc(F)ccc4CO)CC3)C2)C1 [Compound A117]
> 10	80 to 100	CCOC(=O)N1CC2(CC[C@@H](N3CCN(c4cc(F)cnc4-c4cccc(F)c4O)CC3)C2)C1 [Compound A118]
> 10	80 to 100	CCOC(=O)N1CC2(CC[C@@H](N3CCN(c4cc(F)cnc4-c4cc(F)nc(F)c4)CC3)C2)C1 [Compound A119]
> 10	80 to 100	CCOC(=O)N1CC2(CC[C@@H](N3CCN(c4cc(F)cnc4-c4ccn(C)n4)CC3)C2)C1 [Compound A120]
> 10	80 to 100	CCOC(=O)N1CC2(CC[C@@H](N3CCN(c4cc(F)cnc4-c4ccn(CC)n4)CC3)C2)C1 [Compound A121]
> 10	80 to 100	CCOC(=O)N1CC2(CC[C@@H](N3CCN(c4cc(F)cnc4-c4cncc(OCC)c4)CC3)C2)C1 [Compound A122]
> 10	80 to 100	CCOC(=O)N1CC2(CC[C@@H](N3CCN(c4cc(F)cnc4-c4ccc(=O)n(C)c4)CC3)C2)C1 [Compound A123]
> 10	80 to 100	CCOC(=O)N1CC2(CC[C@@H](N3CCN(c4cc(F)cnc4-c4cnc(N5CCC5)nc4)CC3)C2)C1 [Compound A124]
> 10	80 to 100	CCOC(=O)N1CC2(CC[C@@H](N3CCN(c4cc(F)cnc4-c4cc(C)nc(F)c4)CC3)C2)C1 [Compound A125]
> 10	80 to 100	CCOC(=O)N1CC2(CC[C@@H](N3CCN(c4cc(F)cnc4-c4cnn(C5COC5)c4)CC3)C2)C1 [Compound A126]
> 10	80 to 100	CCOC(=O)N1CC2(CC[C@@H](N3CCN(c4cc(F)cnc4-c4cc(O)ccc4F)CC3)C2)C1 [Compound A127]

The remaining lines, values behind:

SMILES	EC50 [1] [µM]	Emax (M4 mAChR) [%]
CCOC(=O)N1CC2(CC[C@@H](N3CCN(c4cc(F)cnc4-c4ccncc4C#N)CC3)C2)C1 [Compound A64]	> 10	80 to 100
CCOC(=O)N1CC2(CC[C@@H](N3CCN(c4cc(F)cnc4-c4cccc5cnn(C)c45)CC3)C2)C1 [Compound A65]	> 10	50 to 79.9
CCOC(=O)N1CC2(CC[C@@H](N3CCN(c4cc(F)cnc4-c4ccc5cn(C)nc5c4)CC3)C2)C1 [Compound A68]	> 10	80 to 100
CCOC(=O)N1CC2(CC[C@@H](N3CCN(c4cc(F)cnc4-c4cnccc4OC)CC3)C2)C1 [Compound A69]	> 10	80 to 100
CCOC(=O)N1CC2(CC[C@@H](N3CCN(c4cc(F)cnc4-c4ccc(OC)c(CO)c4)CC3)C2)C1 [Compound A72]	> 10	50 to 79.9
CCOC(=O)N1CC2(CC[C@@H](N3CCN(c4cc(F)cnc4-c4cnc(N(C)C)nc4)CC3)C2)C1 [Compound A73]	> 10	80 to 100
CCOC(=O)N1CC2(CC[C@@H](N3CCN(c4cc(F)cnc4-c4ccnn4CC(C)C)CC3)C2)C1 [Compound A77]	> 10	80 to 100
CCOC(=O)N1CC2(CC[C@@H](N3CCN(c4cc(F)cnc4-c4c(C)noc4C)CC3)C2)C1 [Compound A78]	> 10	80 to 100
CCOC(=O)N1CC2(CC[C@@H](N3CCN(c4cc(F)cnc4-c4cnc(F)c(F)c4)CC3)C2)C1 [Compound A79]	> 10	80 to 100
CCOC(=O)N1CC2(CC[C@@H](N3CCN(c4cc(F)cnc4-c4c(C)n[nH]c4C)CC3)C2)C1 [Compound A81]	> 10	80 to 100
CCOC(=O)N1CC2(CC[C@@H](N3CCN(c4cc(F)cnc4-c4cnc(C#N)c(F)c4)CC3)C2)C1 [Compound A83]	> 10	80 to 100
C=CCn1cc(-c2ncc(F)cc2N2CCN([C@@H]3CCC4(C3)CN(C(=O)OCC)C4)CC2)cn1 [Compound A84]	> 10	80 to 100
CCOC(=O)N1CC2(CC[C@@H](N3CCN(c4cc(F)cnc4-c4c[nH]nc4C(F)(F)F)CC3)C2)C1 [Compound A85]	> 10	80 to 100
CCOC(=O)N1CC2(CC[C@@H](N3CCN(c4cc(F)cnc4-c4csc(CO)c4)CC3)C2)C1 [Compound A86]	> 10	80 to 100
CCOC(=O)N1CC2(CC[C@@H](N3CCN(c4cc(F)cnc4-c4ccc(CO)s4)CC3)C2)C1 [Compound A88]	> 10	80 to 100
CCOC(=O)N1CC2(CC[C@@H](N3CCN(c4cc(F)cnc4-c4ccnc5c4ccn5C)CC3)C2)C1 [Compound A89]	> 10	80 to 100
CCOC(=O)N1CC2(CC[C@@H](N3CCN(c4cc(F)cnc4-c4cccc(CCO)c4)CC3)C2)C1 [Compound A90]	> 10	80 to 100
CCOC(=O)N1CC2(CC[C@@H](N3CCN(c4cc(F)cnc4-c4ccn5ccnc5c4)CC3)C2)C1 [Compound A92]	> 10	80 to 100
CCOC(=O)N1CC2(CC[C@@H](N3CCN(c4cc(F)cnc4-c4ccc(C#N)cc4OC)CC3)C2)C1 [Compound A94]	> 10	80 to 100
CCOC(=O)N1CC2(CC[C@@H](N3CCN(c4cc(F)cnc4-c4ccc5c(c4)OCCN5)CC3)C2)C1 [Compound A95]	> 10	80 to 100
CCOC(=O)N1CC2(CC[C@@H](N3CCN(c4cc(F)cnc4-c4ccc5nccn5c4)CC3)C2)C1 [Compound A96]	> 10	80 to 100
CCOC(=O)N1CC2(CC[C@@H](N3CCN(c4cc(F)cnc4-c4cccc(C(=O)NC)c4)CC3)C2)C1 [Compound A97]	> 10	80 to 100
CCOC(=O)N1CC2(CC[C@@H](N3CCN(c4cc(F)cnc4-c4ccnc(C)c4)CC3)C2)C1 [Compound A98]	> 10	80 to 100
